Experimental data: ChEMBL document CHEMBL1141171, “Selective estrogen receptor modulators with conformationally restricted side chains. Synthesis and structure-activity relationship of ERalpha-selective tetrahydroisoquinoline ligands” (J Med Chem, 2005)

Experiments:
[1] = Total clearance of compound in rat after administration of 1 mg/kg (iv) and 5 mg/kg (po); assay type: ADME, organism-based; details: in vivo
[2] = Steady state volume of distribution in rat after administration of 1 mg/kg (iv) and 5 mg/kg (po); assay type: ADME, organism-based; details: in vivo, read-out: Vss
[3] = Maximum plasma concentration of compound in rat after peroral administration of 5 mg/kg; assay type: ADME, organism-based; parameters: dose 5 mg/kg, route oral; details: po
in vivo = details: rat, po, 5 mg/kg

| clearance [1] [mL/min/kg] | Vd [2] [L/kg] | Cmax [3] [nM] | bioavailability (in vivo) [%] | SMILES |
| --- | --- | --- | --- | --- |
| 52.4 | 15.8 | 26.5 | 64 | CN1CCC(c2ccc(C3c4ccc(O)cc4CCN3c3ccc(F)cc3)cc2)CC1 (stereo unspecified) |
| 28.4 | 9.2 | 29.7 | 49 | Oc1ccc2c(c1)CCN(c1ccccc1)C2c1ccc(N2CCN3CCCCC3C2)cc1 (stereo unspecified) |
| 158 | 17.6 | 7.5 | – | O=C(c1ccc(OCCN2CCCCC2)cc1)c1c(-c2ccc(O)cc2)sc2cc(O)ccc12 [RALOXIFENE] |
| 17.9 | 5 | 57.2 | 44 | CC(C)N1CCN(c2ccc(C3c4ccc(O)cc4CCN3c3cccc(O)c3)cc2)CC1 (stereo unspecified) |
| 51.9 | 13.8 | 31 | – | Oc1ccc2c(c1)CCN(c1ccccc1)C2c1ccc(OCCN2CCCCC2)cc1 (stereo unspecified) |
| 55.7 | 14.7 | 15.5 | – | Oc1ccc2c(c1)CC[C@H](c1ccccc1)[C@@H]2c1ccc(OCCN2CCCC2)cc1 [LASOFOXIFENE] |
